Laboratory results as given in patent US6852735B1, “Siastatin B derivatives having a glycosidase inhibitory activity and processes for producing the same” (Zaidan Hojin Biseibutsu Kagaku Kenkyu Kai, priority 1998, dated 2005).

How the values were obtained:
Assay type in all cases: biochemical
[1] = system: α-D-galactosidase (from Aspergillus niger); assay: α-galactosidase inhibition (Test Example 3); settings: for 50% inhibiory concentration (IC50) Enzyme C: α-D-galactosidase from Aspergillus niger, substrate p-nitrophenyl-α-D-galactoside
Protocol: (§1) Thus, 0.5 mL of 0.025M citrate-phosphate buffer (pH 4.0), 0.1 mL of the same buffer containing 10 mM p-nitro-phenyl-N-acetyl-α-D-galactosaminide dissolved therein, and 0.1 mL of either water or an aqueous solution containing as the test compound any one of the compounds of the formulae (I), (V) and (X) according to this invention were mixed with each other and pre-incubated in a 96-wells titer plate at 37° C. for 10 minutes. After the completion of the pre-incubation, to the pre-incubated mixture was added 0.01 mL of 0.025 M citrate-phosphate buffer containing α-N-acetyl-galactosaminidase originated from chicken liver (a product of Sigma Company) which was dissolved in said buffer as a glycosidase to be tested. Thereafter, the enzymatic reaction was conducted at 37° C. for 30 minutes.
(§2) After the enzymatic reaction, to the reaction solution was added 1.0 mL of 0.3M glycine—sodium hydroxide buffer (pH 10.5), in order to terminate the enzymatic reaction. Thereafter, the absorbance [designated as value (a)] of light at 405 nm of the resulting reaction solution was measured. Concurrently, measurement was made of the absorbance [designated as value (b)] at 405 nm of the reaction solution as obtained in the control test where the enzymatic reaction was conducted without addition of the test compound. Further, measurements were made of the absorbance [designated as values (a′)] and the absorbance [[designated as values (b′)] at 405 nm of the solutions as obtained in the blank test and the control test, respectively, where the enzymatic reaction was not conducted in the assay test. The rate of inhibition to […] was calculated by the equation: [1-(a-a′)/(b-b′)]×100.
(§3) The test results obtained are summarized as IC50 value in Table 1 below.
(§4) This Test Example is a test example for determining the α-galactosidase or β-galactosidase-inhibitory activity of the compound of the formula (I), (V) or (X) according to this invention.
(§5) The evaluation of the α-galactosidase or β-galactosidase-inhibitory activity was conducted according to a modification of the method described in the “Journal of Biological Chemistry”, 240, p.2468 (1965).
(§6) Namely, the test was conducted in the same manner as the test for the enzyme-inhibitory activity described in Test Example 1, but with using α-galactosidase or β-galactosidase (products of by Sigma Company) originated from Aspergillus niger, as the glycosidase enzyme, and with using p-nitrophenyl-α-D-galactoside and p-nitrophenyl-β-D-galactoside as the substrate. Furthermore, absorbances of light at 405 nm were measured in the same manner as in Test Example 1. IC50 values of the test compound capable of giving the 50% inhibition to the enzymes were calculated.

[2] = biological target: T1, β-D-galactosidase (from Aspergillus niger) (Aspergillus niger, UniProt P29853); assay: β-galactosidase inhibition (Test Example 3); settings: for inhibition of β-D-galactosidase, in words: summary of Table 1
T1 construct: originated from Aspergillus niger; purchased Sigma Company; host or cells: Aspergillus niger
T1 sequence (P29853 20-1006): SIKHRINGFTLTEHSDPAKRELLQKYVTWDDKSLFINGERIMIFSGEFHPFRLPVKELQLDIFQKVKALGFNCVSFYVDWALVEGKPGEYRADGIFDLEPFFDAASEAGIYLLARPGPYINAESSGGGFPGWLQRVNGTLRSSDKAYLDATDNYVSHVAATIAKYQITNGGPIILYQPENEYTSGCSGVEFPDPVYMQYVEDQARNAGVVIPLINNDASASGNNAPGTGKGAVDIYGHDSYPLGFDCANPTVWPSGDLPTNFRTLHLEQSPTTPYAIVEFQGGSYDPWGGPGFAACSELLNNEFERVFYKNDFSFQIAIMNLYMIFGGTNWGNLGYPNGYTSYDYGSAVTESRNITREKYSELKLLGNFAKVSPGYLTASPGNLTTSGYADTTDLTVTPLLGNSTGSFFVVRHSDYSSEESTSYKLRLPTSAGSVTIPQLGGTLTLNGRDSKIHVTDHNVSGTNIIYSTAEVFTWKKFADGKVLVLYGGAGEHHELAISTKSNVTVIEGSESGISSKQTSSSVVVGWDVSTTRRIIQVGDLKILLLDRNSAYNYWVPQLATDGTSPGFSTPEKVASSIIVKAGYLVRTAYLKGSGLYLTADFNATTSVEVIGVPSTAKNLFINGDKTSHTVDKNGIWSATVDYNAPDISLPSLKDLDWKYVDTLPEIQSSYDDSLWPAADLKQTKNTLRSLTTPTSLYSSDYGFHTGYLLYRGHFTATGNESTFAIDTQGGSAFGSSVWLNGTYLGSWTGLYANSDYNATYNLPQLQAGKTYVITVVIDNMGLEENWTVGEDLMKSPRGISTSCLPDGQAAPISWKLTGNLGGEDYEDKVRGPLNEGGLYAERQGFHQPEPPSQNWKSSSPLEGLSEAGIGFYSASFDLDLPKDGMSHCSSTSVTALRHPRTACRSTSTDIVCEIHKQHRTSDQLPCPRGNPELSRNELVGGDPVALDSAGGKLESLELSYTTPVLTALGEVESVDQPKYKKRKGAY
Protocol: as §1, §2, §3, §4, §5, §6

[3] = system: β-D-mannosidase (from snail); assay: β-mannosidase inhibition (Test Example 5); settings: for inhibition of β-D-mannosidase, in words: summary of Table 1; for 50% inhibiory concentration (IC50) Enzyme F: β-D-mannosidase from snail, substrate p-nitrophenyl-β-D-mannoside, sodium acetate buffer pH 4.5
Protocol: as §1, §2, §3
This Test Example is a test example for determining the α-mannosidase or β-mannosidase-inhibitory activity of the compounds according to this invention.
The evaluation of the β-mannosidase-inhibitory activity was conducted according to a modification of the method described in the “Journal of Biological Chemistry”, 242, p.5474 (1967).
Namely, the test was conducted in the same manner as the test for the enzyme-inhibitory activity test described in Test Example 1, but with using α-mannosidase from jack bean or β-mannosidase from snail (both enzymes are products of Sigma Company) as the glycosidase enzyme, with using 0.05 M sodium acetate—acetate buffer (pH 4.5) as the buffer, and with using p-nitrophenyl-α-D-mannoside or p-nitrophenyl-β-D-mannoside as the substrate. Furthermore, absorbances of light were measured in the same manner as in Test Example 1. IC50 values of the test compound capable of giving the 50% inhibition to the enzymes were calculated.

[4] = biological target: α-D-glucosidase (from yeast); assay: α-glucosidase inhibition (Test Example 4); settings: for 50% inhibiory concentration (IC50) Enzyme H: α-D-glucosidase from yeast, substrate p-nitrophenyl-α-D-glucoside; for inhibition of α-D-glucosidase, in words: summary of Table 1
Protocol: as §1, §2, §3
This Test Example is a test example for determining the α-glucosidase or β-glucosidase-inhibitory activity of the compound of the formula (I), (V) or (X) according to this invention.
The evaluation of the β-glucosidase-inhibitory activity was conducted according to a modification of the method described in the “Agricultural and Biological Chemistry”, 26, p.203 (1962).
Namely, the test was conducted in the same manner as the test for the enzyme-inhibitory activity described in Test Example 1, but with using α-glucosidase originated from yeast or β-glucosidase originated from almond (both enzymes are products of Sigma Company) as the glycosidase enzyme, and with using p-nitro-phenyl-α-D-glucoside or p-nitrophenyl-β-D-glucoside as the substrate. Furthermore, absorbances of light were measured in the same manner as in Test Example 1, and IC50 values of the test compound capable of giving the 50% inhibition to the enzyme were calculated.

Row | SMILES | inhibition of α-D-galactosidase, in words ([1]; summary of Table 1) | 50% inhibiory concentration (IC50) Enzyme C [1] | IC50 [2] | inhibition of β-D-galactosidase, in words [2] | inhibition of β-D-mannosidase, in words [3] | 50% inhibiory concentration (IC50) Enzyme F [3] | 50% inhibiory concentration (IC50) Enzyme H [4] | inhibition of α-D-glucosidase, in words [4]
1 | O=C(N[C@H]1NC[C@H](CO)[C@H](O)[C@@H]1O)C(F)(F)F [Formula (I), 6-deacetamido-3-decarboxy-3-hydroxymethyl-6-trifluoroacetamido-siastain B] | inhibit strongly | 0.1 µg/mL | 0.194 µM | inhibit strongly | inhibit strongly | 38 µg/mL | >100 µg/mL | 
2 | CC(=O)NC1NCC(CO)C(O)C1O (stereo not drawn) [Formula (V), 3-decarboxy-4-epi-3-hydroxymethyl-siastain B] |  | >100 µg/mL | > 490 µM |  | inhibit strongly | 10 µg/mL | 7 µg/mL | inhibit strongly
3 | O=C(N[C@H]1NC[C@H](CO)[C@@H](O)[C@@H]1O)C(F)(F)F [Formula (X), 6-deacetamido-3-decarboxy-4-epi-3-hydroxymethyl-6-trifluoroacetamido-siastain B] |  | >100 µg/mL | 232 µM | inhibit strongly | inhibit strongly | 1 µg/mL | 0.06 µg/mL | inhibit strongly
